Source: patent US20100311714A1, “1H-IMIDAZO[4,5-c]QUINOLINONE COMPOUNDS” (priority 2009, published 2010)

Target: T1, PI3K gamma (Homo sapiens, UniProt P48736)
T1 construct: His tag (C); made in house; host or cells: construct from Roger Williams lab (pVL1393); baculovirus BV950; Tn5 (Trichoplusia ni) or TiniPro insect cells
Assay: PI3K gamma kinase assay (Kinase-Glo luminescence)
Format: biochemical
Details: read-out: PI3Kgamma/IC50
Protocol: In a more preferred assay, the kinase reaction is performed in a final volume of 10 μL per well of a low volume non binding CORNING, 384 well black plate (Cat. No. #3676). The final concentrations of ATP and phosphatidyl inositol (PI) in the assay are 1 μM and 10 μg/mL respectively. The reaction is started by the addition of ATP.
The components of the assay are added per well as follows:
50 nL test compounds in 90% DMSO per well, in columns 1-20, 8 concentrations (⅓ and 1/3.33 serial dilution step) in single. • Low control: […] of 90% DMSO in half the wells of columns 23-24 (0.45% in final). • High control: 50 nL of reference compound (e.g. compound of Example 7 in WO 2006/122806) in the other half of columns 23-24 (2.5 μM in final). • Standard: 50 nL of reference compound as just mentioned diluted as the test compounds in columns 21-22 • 20 mL ‘buffer’ are prepared per assay: • 200 μL of 1M TRIS HCl pH7.5 (10 mM in final) • 60 μL of 1M MgCl2 (3 mM in final) • 500 μL of 2M NaCl (50 mM in final) • 100 μL of 10% CHAPS (0.05% in final) • 200 μL of 100 mM DTT (1 mM in final) • 18.94 mL of nanopure water • 10 mL ‘PI’ are prepared per assay: • 200 μL of 1 mg/ml L-alpha-Phosphatidylinositol (Liver Bovine, Avanti Polar Lipids Cat. No. 840042C MW=909.12) prepared in 3% OctylGlucoside (10 μg/ml in final) • 9.8 mL of ‘buffer’ • 10 mL ‘ATP’ are prepared per assay: • 6.7 μL of 3 mM stock of ATP giving a final concentration of 1 μM per well • 10 mL of ‘buffer’ • 2.5 mL of each PI3K construct are prepared per assay in ‘PI’ with the following final concentration: • 10 nM PI3K alfa EMV B1075 • 25 nM beta EMV BV949 • 10 nM delta EMV BV1060 • 150 nM gamma EMV BV950 • 5 μL of ‘PI/PI3K’ are added per well. • 5 μl ‘ATP’ are added per well to start the reaction. • The plates are then incubated at room temperature for 60 minutes (alfa, beta, delta) or 120 minutes (gamma). • The reaction is terminated by the addition of 10 μL Kinase-Glo (Promega Cat. No. #6714). • The assay plates are read after 10 minutes in Synergy 2 reader (BioTek, Vermont USA) with an integration time of 100 milliseconds and sensitivity set to 191. • Output: The High control is around 60′000 counts and the Low control is 30′000 or lower • This luminescence assay gives a useful Z′ ratio between 0.4 and 0.7
PI3K gamma is purified in two chromatographic steps: immobilized metal affinity chromatography (IMAC) on a Ni Sepharose resin (GE Healthcare) and gel filtration (GFC) utilizing a Superdex 200 26/60 column (GE Healthcare). All buffers are chilled to 4° C. and lysis is performed chilled on ice. Column fractionation is performed rapidly at room temperature. Typically frozen insect cells are lysed in a hypertonic lysis buffer and applied to a prepared IMAC column. The resin is washed with 3-5 column volumes of lysis buffer, followed by 3-5 column volumes wash buffer containing 45 mM imidazole, and the target protein is then eluted with a buffer containing 250 mM imidazole. Fractions are analyzed by Coomassie stained SDS-PAGE gels, and fractions containing target protein are pooled and applied to a prepared GFC column. Fractions from the GFC column are analyzed by Coomassie stained SDS-PAGE gels, and fractions containing target protein are pooled. The final pool is dialyzed into a storage buffer containing 50% glycerol and stored at −20° C. The final pool is assayed for activity in the phosphoinostitol kinase assay.
IC50 is determined by a four parameter curve fitting routine that comes along with “excel fit”. A 4 Parameter logistic equation is used to calculate IC50 values (IDBS XLfit) of the percentage inhibition of each compound at 8 concentrations (usually 10, 3.0, 1.0, 0.3, 0.1, 0.030, 0.010 and 0.003 μM). Alternatively, IC50 values are calculated using idbsXLfit model 204, which is a 4 parameter logistic model.

T1 sequence (P48736 144-1102 limits assumed): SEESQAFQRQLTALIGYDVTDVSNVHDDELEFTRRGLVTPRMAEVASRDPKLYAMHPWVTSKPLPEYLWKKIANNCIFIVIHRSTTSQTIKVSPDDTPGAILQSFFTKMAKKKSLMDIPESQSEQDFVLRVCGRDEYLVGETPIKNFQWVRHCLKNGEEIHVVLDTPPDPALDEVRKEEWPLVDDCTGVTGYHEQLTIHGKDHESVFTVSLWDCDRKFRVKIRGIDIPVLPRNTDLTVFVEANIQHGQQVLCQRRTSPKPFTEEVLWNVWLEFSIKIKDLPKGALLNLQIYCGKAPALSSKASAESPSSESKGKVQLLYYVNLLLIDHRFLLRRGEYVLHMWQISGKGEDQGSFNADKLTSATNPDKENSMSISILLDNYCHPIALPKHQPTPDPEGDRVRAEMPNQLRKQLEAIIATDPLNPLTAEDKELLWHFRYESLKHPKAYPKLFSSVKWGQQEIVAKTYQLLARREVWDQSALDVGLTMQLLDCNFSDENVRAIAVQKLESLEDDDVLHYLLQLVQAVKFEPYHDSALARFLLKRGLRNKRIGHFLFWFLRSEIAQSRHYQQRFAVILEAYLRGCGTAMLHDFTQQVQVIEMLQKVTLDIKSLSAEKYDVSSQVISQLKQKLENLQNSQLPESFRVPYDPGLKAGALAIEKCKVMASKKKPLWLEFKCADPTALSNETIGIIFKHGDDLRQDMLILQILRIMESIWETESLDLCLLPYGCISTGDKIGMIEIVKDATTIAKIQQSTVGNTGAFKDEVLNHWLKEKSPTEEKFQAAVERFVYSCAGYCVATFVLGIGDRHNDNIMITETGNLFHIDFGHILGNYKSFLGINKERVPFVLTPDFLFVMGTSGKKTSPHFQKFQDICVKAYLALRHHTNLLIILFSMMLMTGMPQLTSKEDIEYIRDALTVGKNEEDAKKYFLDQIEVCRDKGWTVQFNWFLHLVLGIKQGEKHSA

Row | SMILES | IC50
1 | COc1ncccc1-n1c(=O)n(C)c2cnc3ccc(-c4ccc(C(N)=O)cc4)cc3c21 [Example 1.6, 4-[1-(2-Methoxy-pyridin-3-yl)-3-methyl-2-oxo-2,3-dihydro-1H-imidazo[4,5-c]quinolin-8-yl]-benzamide] | 0.12 µM
2 | Cc1ncccc1-n1c(=O)n(C)c2cnc3ccc(-c4cnc(N)c(C(F)(F)F)c4)cc3c21 [Example 2.11, 8-(6-Amino-5-trifluoromethyl-pyridin-3-yl)-3-methyl-1-(2-methyl-pyridin-3-yl)-1,3-dihydro-imidazo[4,5-c]quinolin-2-one] | 0.124 µM
3 | CNc1ncc(-c2ccc3ncc4c(c3c2)n(-c2ncccc2C)c(=O)n4C)cn1 [Example 3.4, 3-Methyl-8-(2-methylamino-pyrimidin-5-yl)-1-(3-methyl-pyridin-2-yl)-1,3-dihydro-imidazo[4,5-c]quinolin-2-one] | 0.386 µM
4 | COc1ccc(-c2ccc3ncc4c(c3c2)n(-c2cccnc2C)c(=O)n4C)cc1OC [Example 2.9, 8-(3,4-Dimethoxy-phenyl)-3-methyl-1-(2-methyl-pyridin-3-yl)-1,3-dihydro-imidazo[4,5-c]quinolin-2-one] | 0.126 µM
5 | Cc1ncccc1-n1c(=O)n(C)c2cnc3ccc(-c4ccc(CO)nc4)cc3c21 [Example 2.6, 8-(6-Hydroxymethyl-pyridin-3-yl)-3-methyl-1-(2-methyl-pyridin-3-yl)-1,3-dihydro-imidazo[4,5-c]quinolin-2-one] | 0.913 µM
6 | COc1ccc(-c2ccc3ncc4c(c3c2)n(-c2ncccc2C)c(=O)n4C)cc1OC [Example 3.10, 8-(3,4-Dimethoxy-phenyl)-3-methyl-1-(3-methyl-pyridin-2-yl)-1,3-dihydro-imidazo[4,5-c]quinolin-2-one] | 0.307 µM
7 | Cc1ncccc1-n1c(=O)n(C)c2cnc3ccc(-c4ccc(N)nc4)cc3c21 [Example 2.7, 8-(6-Amino-pyridin-3-yl)-3-methyl-1-(2-methyl-pyridin-3-yl)-1,3-dihydro-imidazo[4,5-c]quinolin-2-one] | 0.388 µM
8 | CNC(=O)c1ccc(-c2ccc3ncc4c(c3c2)n(-c2ncccc2C)c(=O)n4C)cc1 [Example 3.5, N-Methyl-4-[3-methyl-1-(3-methyl-pyridin-2-yl)-2-oxo-2,3-dihydro-1H-imidazo[4,5-c]quinolin-8-yl]-benzamide] | 0.434 µM
9 | Cc1cccnc1-n1c(=O)n(C)c2cnc3ccc(-c4ccc(C(N)=O)cc4)cc3c21 [Example 3.3, 4-[3-Methyl-1-(3-methyl-pyridin-2-yl)-2-oxo-2,3-dihydro-1H-imidazo[4,5-c]quinolin-8-yl]-benzamide] | 0.322 µM
10 | CNc1ccc(-c2ccc3ncc4c(c3c2)n(-c2cccnc2C)c(=O)n4C)cn1 [Example 2.13, 3-Methyl-8-(6-methylamino-pyridin-3-yl)-1-(2-methyl-pyridin-3-yl)-1,3-dihydro-imidazo[4,5-c]quinolin-2-one] | 0.195 µM
11 | COc1ncccc1-n1c(=O)n(C)c2cnc3ccc(-c4cnc5[nH]ccc5c4)cc3c21 [Example 1.2, 1-(2-Methoxy-pyridin-3-yl)-3-methyl-8-(1H-pyrrolo[2,3-b]pyridin-5-yl)-1,3-dihydro-imidazo[4,5-c]quinolin-2-one] | 0.168 µM
12 | Cc1ncccc1-n1c(=O)n(C)c2cnc3ccc(-c4ccc(C(N)=O)cc4)cc3c21 [Example 2.3, 4-[3-Methyl-1-(2-methyl-pyridin-3-yl)-2-oxo-2,3-dihydro-1H-imidazo[4,5-c]quinolin-8-yl]-benzamide] | 0.23 µM
13 | CCOc1ccc(-c2ccc3ncc4c(c3c2)n(-c2ncccc2C)c(=O)n4C)cn1 [Example 3.6, 8-(6-Ethoxy-pyridin-3-yl)-3-methyl-1-(3-methyl-pyridin-2-yl)-1,3-dihydro-imidazo[4,5-c]quinolin-2-one] | 0.522 µM
14 | Cc1cccnc1-n1c(=O)n(C)c2cnc3ccc(-c4ccc(N(C)C)nc4)cc3c21 [Example 3.11, 8-(6-Dimethylamino-pyridin-3-yl)-3-methyl-1-(3-methyl-pyridin-2-yl)-1,3-dihydro-imidazo[4,5-c]quinolin-2-one] | 0.846 µM
15 | COc1ccc(-c2ccc3ncc4c(c3c2)n(-c2cccnc2C)c(=O)n4C)cn1 [Example 2.12, 8-(6-Methoxy-pyridin-3-yl)-3-methyl-1-(2-methyl-pyridin-3-yl)-1,3-dihydro-imidazo[4,5-c]quinolin-2-one] | 0.242 µM
16 | Cc1cccnc1-n1c(=O)n(C)c2cnc3ccc(-c4cnc(N)c(C(F)(F)F)c4)cc3c21 [Example 3.12, 8-(6-Amino-5-trifluoromethyl-pyridin-3-yl)-3-methyl-1-(3-methyl-pyridin-2-yl)-1,3-dihydro-imidazo[4,5-c]quinolin-2-one] | 0.202 µM

Continued, values first:

Row | IC50 | SMILES
17 | 0.139 µM | Cn1c(=O)n(-c2cccnc2F)c2c3cc(-c4cnc(N)c(C(F)(F)F)c4)ccc3ncc21 [Example 6.2, 8-(6-Amino-5-trifluoromethyl-pyridin-3-yl)-1-(2-fluoro-pyridin-3-yl)-3-methyl-1,3-dihydro-imidazo[4,5-c]quinolin-2-one]
18 | 0.362 µM | CN(C)c1ccc(-c2ccc3ncc4c(c3c2)n(-c2cccnc2)c(=O)n4C)cn1 [Example 5.3, 8-(6-Dimethylamino-pyridin-3-yl)-3-methyl-1-pyridin-3-yl-1,3-dihydro-imidazo[4,5-c]quinolin-2-one]
19 | 0.206 µM | CCOc1ccc(-c2ccc3ncc4c(c3c2)n(-c2cccnc2F)c(=O)n4C)cn1 [Example 6.1, 8-(6-Ethoxy-pyridin-3-yl)-1-(2-fluoro-pyridin-3-yl)-3-methyl-1,3-dihydro-imidazo[4,5-c]quinolin-2-one]
20 | 0.546 µM | CCOc1ccc(-c2ccc3ncc4c(c3c2)n(-c2cnccc2C)c(=O)n4C)cn1 [Example 4.2, 8-(6-Ethoxy-pyridin-3-yl)-3-methyl-1-(4-methyl-pyridin-3-yl)-1,3-dihydro-imidazo[4,5-c]quinolin-2-one]
21 | 0.439 µM | COc1ccc(-c2ccc3ncc4c(c3c2)n(-c2cnccc2C)c(=O)n4C)cn1 [Example 4.3, 8-(6-Methoxy-pyridin-3-yl)-3-methyl-1-(4-methyl-pyridin-3-yl)-1,3-dihydro-imidazo[4,5-c]quinolin-2-one]
22 | 0.943 µM | Cn1c(=O)n(-c2cccnc2)c2c3cc(-c4ccc(CO)nc4)ccc3ncc21 [Example 5.1, 8-(6-Hydroxymethyl-pyridin-3-yl)-3-methyl-1-pyridin-3-yl-1,3-dihydro-imidazo[4,5-c]quinolin-2-one]
